Values quoted from earlier work in patent publication US20120121615A1, “ALANINYL MAYTANSINOL ANTIBODY CONJUGATES” (priority 2010, published 2012).

## COc1cc2cc(c1Cl)N(C)C(=O)C[C@H](OC(=O)[C@H](C)N(C)C(C)=O)[C@]1(C)O[C@H]1[C@H](C)[C@@H]1C[C@@](O)(NC(=O)O1)[C@H](OC)/C=C/C=C(\C)C2 [maytansine]
2.0 mg/m^2 every 3 weeks, single dose or 3 consecutive days
  dose-limiting toxicity (DLT): gastrointestinal, consisting of nausea, vomiting, and diarrhea
At doses that could be safely delivered
  activity in the clinic: modest
